From patent US12083093B2, “Composition for preventing or treating cellular senescence-related diseases comprising salinomycin as effective component” (RESEARCH COOPERATION FOUNDATION OF YEUNGNAM UNIVERSITY, priority 2018, dated 2024)

Assays:
[1] = system: premature senescent vascular endothelial cells (HUVEC) by doxorubicin; assay: SAβG activity staining, doxorubicin-induced premature senescent HUVEC; type: cell-based, human; settings: 100 nM, 4 days; compared to DMSO-treated group; p<0.01; FIG. 3A, 3B
Method: Each cell was treated in a serum-free culture solution containing doxorubicin (0.5 μM) for 4 hours. After washing the cells with a serum-free culture solution, the cells were cultured for 4 days in a culture solution containing 10% FBS, and then cellular aging was confirmed by measuring the level of senescence by staining with senescence-associated beta galactosidase.
After each sample was dissolved in DMSO, young cells, replicative senescent cells and senescent cells in which premature aging was induced by treating with doxorubicin were treated with 100 nM salinomycin, 100 nM rapamycin, 100 nM ABT263. After incubation for 4 days in a 37° C., 5% CO2 incubator, the degree of cell survival was confirmed by CCK-8 analysis, the degree of cellular aging was confirmed by senescence-associated β-galactosidase (SAβG) staining, p53 and p16 protein expression analysis.
The cells were washed with 1× phosphate buffer solution, and fixed with a phosphate buffer solution containing 3.7% (v/v) paraformaldehyde. After adding 1 mg/ml 5-bromo-4-chloro-3-indolyl-β-D-galactoside, 40 mM citric acid-sodium phosphate (pH 6.0), 5 mM potassium ferricyanide, 5 mM potassium ferrocyanide, 150 mM NaCl, and 2 mM MgCl2 solution, it was reacted at 37° C. for 18 hours. It was stained with eosin as a control stain and cells stained blue in the cytoplasm were identified using an optical microscope. […]

[2] = system: renal fibrosis induced by renal ischemia-reperfusion injury; type: in vivo, C57BL/6J mice; settings: compared to PBS group
Method: Animal experiments were performed with the approval of the Animal Experimental Ethics Committee, Yeungnam University College of Medicine (YUMC-AEC2018-024). C57BL/6J 8-week-old male mice were anesthetized by intraperitoneal injection of 2.5% Avertin (0.025 ml/g body weight). The mouse was placed on a hot plate at 37° C., and the left flank was incised to expose the left kidney. The renal arteriovenous blood vessels were ligated with a microaneurism clamp (Roboz), and whether the blood vessels were blocked or not was confirmed by the color of the kidneys. During the induction of ischemia, the body temperature of the mice was maintained at 36.5-37.5° C. After 35 minutes, the clamp was removed and it was confirmed that reperfusion occurred.
As a control, renal arteriovenous vessels were not ligated, and the rest was performed in the same manner as above. From 4 days after ischemia-reperfusion injury, 2.5 μl of 10 mM salinomycin was diluted in 100 μl of phosphate buffer solution at intervals of 2 days and injected into the abdominal cavity 3 times (Sal group). […] Three mice were used for each group.
The left kidney in which ischemia-reperfusion injury was induced, was excised in half and fixed in 10% formalin solution or stored frozen in liquid nitrogen.
In order to evaluate kidney function due to ischemia-reperfusion injury, creatinine and blood urea nitrogen (BUN) concentrations in plasma and urine were measured.
Blood was collected from the retro-orbital vascular plexus of the mouse using a heparin capillary tube, and plasma was separated. Plasma creatinine was measured by QuantiChrom™ creatinine assay kit (DICT-500; BioAssay Systems, Hayward, CA, USA), and BUN was investigated by measuring absorbance at 490 nm and 450 nm by a spectrophotometer, respectively by BUN colorimetric detection kit (Arbor Assays, Ann Arbor, Michigan, USA). […]
RIPA buffer was added to the tissue and pulverized with WiseTis homogenizer HG-15D (DAIHAN Scientific, Seoul, South Korea). Centrifugation was performed at 12,000 rpm at 4° C. for 20 minutes, and the supernatant was transferred to a new tube. The protein concentration of the supernatant was quantified by the BCA method.
After electrophoresis (SDS-PAGE) of 30 μg of protein, Western blot analysis was performed. After electrophoresis, the protein was transferred from the gel to a polyvinylidene fluoride membrane (Pall Corporation). The membrane was treated with a 5% Difco™ skim milk solution (Becton, Dickinson and Company, USA) for 2 hours at room temperature, and the primary antibody was added, followed by reaction at room temperature for 2 hours.
As the primary antibody, anti-p53 antibody, anti-p16 antibody, anti-actin antibody and anti-GAPDH antibody were purchased from Santa Cruz Biotechnology, Inc. Anti-phosphorylated-Rb antibody was obtained from New England Biolabs (Ipswich, MA, USA), and the anti-SOD2 antibody and anti-catalase antibody were obtained from Bioworld Technology Inc. (Louis Park, MN, USA), anti-HNE antibody, anti-α-smooth muscle actin antibody, and anti-type I collagen antibody were purchased from Abcam (Cambridge, UK).
The tissue fixed in 10% formalin solution was embedded with paraffin and cut into 4 μm to prepare a tissue sample. After removing paraffin from the tissue sample, hematoxylin-eosin staining, trichrome staining, and PAS staining were performed.
The degree of fibrosis was measured by analyzing the degree of collagen staining using the i-Solution™ software program (IMT Inc., Canada) after trichrome staining and the degree of cell senescence in tissue samples was investigated by staining lipofuscin with Sudan black B (Viegas M S, et al., European journal of histochemistry: EJH. 2007). The degree of peritoneal fibrosis was confirmed by measuring the submesothelial thickness of the peritoneal mesothelial cell layer using the NIH Image J program. […]

[3] = kidney tissue, antioxidant enzyme
[4] = kidney tissue, fibrosis marker, FIG. 7L, 7M

CC[C@@H](C(=O)[C@@H](C)[C@@H](O)[C@H](C)[C@@H]1O[C@@H]([C@@H](CC)C(=O)O)CC[C@@H]1C)[C@H]1O[C@]2(C=C[C@@H](O)[C@]3(CC[C@@](C)([C@H]4CC[C@](O)(CC)[C@H](C)O4)O3)O2)[C@H](C)C[C@@H]1C [salinomycin]
significantly decreased: SAβG activity staining [1]
significantly reduced: lipid peroxides in tissue ([2]; kidney tissue, FIG. 7H) | MDA in tissue ([2]; kidney tissue, FIG. 7I) | degree of tissue fibrosis by trichrome staining ([2]; kidney, FIG. 7E, 7F) | damage to the renal tubules ([2]; renal tissue specimen, FIG. 7E, 7F)
decreased: plasma creatinine ([2]; i.p. 3 times at 2-day intervals from day 4, FIG. 7C) | plasma BUN ([2]; i.p. 3 times at 2-day intervals from day 4, FIG. 7D) | expression of pRb (Western blot) ([2]; kidney tissue, cell proliferation marker, FIG. 7L, 7M) | expression of p53 (Western blot) ([2]; kidney tissue, cellular aging marker, FIG. 7L, 7M) | Sudan Black B (lipofuscin) staining intensity ([2]; kidney tissue, cellular senescence, FIG. 7G) | expression of type 1 collagen (COL1) (Western blot) [2, 4] | expression of α-SMA (Western blot) [2, 4] | superoxides in tissue ([2]; kidney tissue, FIG. 7J)
marked decrease: expression of p16 (Western blot) ([2]; kidney tissue, cellular aging marker, FIG. 7K) | expression of 4-HNE (Western blot) ([2]; kidney tissue, oxidative stress marker, FIG. 7K)
increased: expression of SOD2 (Western blot) [2, 3] | expression of catalase (Western blot) [2, 3]
